In general, EC50 refers to the concentration needed to bring the measured effect to its halfway point. In general, IC50 refers to the concentration that inhibits the measured activity by half. For orientation: AUC(0-inf) means total exposure, with the tail of the curve extrapolated. A low value points to low exposure. By AUC(0-t) is commonly meant the area under the concentration-time curve up to a stated or last time point. A lower AUC(0-t) goes with less exposure. In general, Cmax refers to the peak of the concentration-time curve. For orientation: Tmax means the time at which the peak concentration occurs. For orientation: half-life means the time in which the quantity being followed falls by half. Higher therefore signals slow loss.

Like-named read-outs stand apart in the source and are kept apart here.

Here are results for six molecules from patent US11572354B2, “Inhibitor of indoleamine 2,3-dioxygenase-1 and methods of manufacture and use thereof” (UNIVERSITY HEALTH NETWORK, priority 2018, dated 2023).

The target in data set [1] is T1, human IDO1 (Homo sapiens (Human), UniProt P14902). The data set can be described thus: IDO1 inhibition in HEK293/IDO1 transfected cells. Type of data set: cell-based. The following applies: HEK293/TRIPZ-IDO1 cells.
Data set [2] in a line: Pharmacokinetics studies in mice (plasma and brain concentration). Type of data set: in vivo. Particulars: for Kp at 0.5 h / Kp at 2 h: brain/plasma. Here is the method:
In order to assess the pharmacokinetics of the IDO1 inhibitors of the present application, two inhibitors were administered to mice at 20 mg/kg via PO (G29), or IP (G28). For a preliminary pharmacokinetic profile, three animals were sacrificed per time point at 30 minutes and two hours post-dose. For a full pharmacokinetic profile, three animals were sacrificed per time point at 15 minute, 30 minutes, 1, 2, 4, 6, 8, and 24 hours post-dose.
Blood samples were collected via cardiac puncture, the mice were perfused with phosphate buffered saline (PBS) and the brains were collected. The blood and brain samples were protein precipitated with ice-cold acetonitrile and the concentration of the test compound in the resulting supernatant was quantified using LC/MS/MS. For the full pharmacokinetic profile, the parameters were computed using the “PK” package with the R statistical computing software using a non-compartmental analysis.

The target in data set [3] is T1, human IDO1. The data set can be described thus: IDO1 enzymatic inhibition assay. Type of data set: biochemical.
Data set [4] deals with TDO2 (Homo sapiens, UniProt P48775). The data set can be described thus: TDO2 enzymatic inhibition assay. Type of data set: biochemical. Particulars: 500 μM L-Tryptophan, means N≥3; read-out: TDO IC50.
The nature of data set [5]: Tissue protein binding (micro-equilibrium dialysis). Particulars: 6 hours at 37° C. Type of data set: in vitro ADME, mice. For orientation: In equilibrium dialysis free small molecules cross a membrane that holds back macromolecules.
The mark [6] stands for this setting: 24 h after doxycycline induction, means N≥3.
The mark [7] stands for this setting: recombinant human IDO1, 200 μM L-Tryptophan, means N≥3.

T1 sequence (P14902 whole entry): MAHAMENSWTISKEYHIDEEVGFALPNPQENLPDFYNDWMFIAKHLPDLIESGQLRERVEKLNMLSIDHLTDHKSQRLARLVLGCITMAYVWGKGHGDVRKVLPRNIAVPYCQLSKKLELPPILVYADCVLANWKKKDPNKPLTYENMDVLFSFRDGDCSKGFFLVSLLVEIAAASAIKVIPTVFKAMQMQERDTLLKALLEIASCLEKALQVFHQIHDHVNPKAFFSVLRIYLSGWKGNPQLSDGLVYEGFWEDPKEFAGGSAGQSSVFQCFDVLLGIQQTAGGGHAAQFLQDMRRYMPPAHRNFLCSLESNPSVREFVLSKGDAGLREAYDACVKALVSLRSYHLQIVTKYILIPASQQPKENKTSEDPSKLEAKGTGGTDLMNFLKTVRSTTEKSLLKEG
Chain of TDO2 (P48775 whole entry, looked up): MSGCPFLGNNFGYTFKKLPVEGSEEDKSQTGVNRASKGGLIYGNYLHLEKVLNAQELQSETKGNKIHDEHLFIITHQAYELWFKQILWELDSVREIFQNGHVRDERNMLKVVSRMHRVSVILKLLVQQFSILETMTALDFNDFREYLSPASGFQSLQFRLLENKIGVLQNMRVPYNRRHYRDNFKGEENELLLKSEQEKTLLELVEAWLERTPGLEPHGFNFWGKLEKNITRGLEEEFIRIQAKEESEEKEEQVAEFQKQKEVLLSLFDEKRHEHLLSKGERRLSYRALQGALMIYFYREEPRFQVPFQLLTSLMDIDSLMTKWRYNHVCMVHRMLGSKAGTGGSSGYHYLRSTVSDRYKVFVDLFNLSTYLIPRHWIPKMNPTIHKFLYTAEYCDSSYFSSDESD

In turn, `Fc1ccc2[nH]c(Cn3cncc3-c3ccc[nH]3)cc2c1` [Compound G29, 2-((5-(1H-pyrrol-2-yl)-1H-imidazol-1-yl)methyl)-5-fluoro-1H-indole] yielded an EC50 in data set [1] (setting [6]) of 0.25 µM. The concentration at 0.5 h in data set [2] (mouse, brain, po, 20 mg/kg, 20 mg/kg PO, 0.5 Hr, individual mouse M1, read-out: Brain concentration M1) was found to be 2390 ng/mL; in data set [2] (mouse, brain, po, 20 mg/kg, 20 mg/kg PO, 0.5 Hr, individual mouse M2, read-out: Brain concentration M2) it was 869 ng/mL; in data set [2] (mouse, brain, po, 20 mg/kg, 20 mg/kg PO, 0.5 Hr, individual mouse M3, read-out: Brain concentration M3) it was 2560 ng/mL; in data set [2] (mouse, brain, po, 20 mg/kg, 20 mg/kg PO, 0.5 Hr, read-out: Brain concentration Mean), 1940 ng/mL; in data set [2] (mouse, plasma, po, 20 mg/kg, 20 mg/kg PO, 0.5 Hr, individual mouse M1, read-out: Plasma concentration M1), 2660 ng/mL; in data set [2] (mouse, plasma, po, 20 mg/kg, 20 mg/kg PO, 0.5 Hr, individual mouse M2, read-out: Plasma concentration M2), 1610 ng/mL. Also, the concentration at 0.5 h in data set [2] (mouse, plasma, po, 20 mg/kg, 20 mg/kg PO, 0.5 Hr, individual mouse M3, read-out: Plasma concentration M3) amounted to 2740 ng/mL; in data set [2] (mouse, plasma, po, 20 mg/kg, 20 mg/kg PO, 0.5 Hr, read-out: Plasma concentration Mean) it was 2330 ng/mL. In addition, the concentration at 2 h is 3450 ng/mL in data set [2] (mouse, brain, po, 20 mg/kg, 20 mg/kg PO, 2 Hr, individual mouse M4, read-out: Brain concentration M4); 2050 ng/mL in data set [2] (mouse, brain, po, 20 mg/kg, 20 mg/kg PO, 2 Hr, individual mouse M5, read-out: Brain concentration M5); 2750 ng/mL in data set [2] (mouse, brain, po, 20 mg/kg, 20 mg/kg PO, 2 Hr, read-out: Brain concentration Mean); 629 ng/mL in data set [2] (mouse, plasma, po, 20 mg/kg, 20 mg/kg PO, 2 Hr, individual mouse M4, read-out: Plasma concentration M4); 408 ng/mL in data set [2] (mouse, plasma, po, 20 mg/kg, 20 mg/kg PO, 2 Hr, individual mouse M5, read-out: Plasma concentration M5); 519 ng/mL in data set [2] (mouse, plasma, po, 20 mg/kg, 20 mg/kg PO, 2 Hr, read-out: Plasma concentration Mean). Moreover, the Kp at 0.5 h in data set [2] (mouse, po, 20 mg/kg, 20 mg/kg PO, 0.5 Hr, individual mouse M1, read-out: B/P Ratio M1) came to 0.9; in data set [2] (mouse, po, 20 mg/kg, 20 mg/kg PO, 0.5 Hr, individual mouse M2, read-out: B/P Ratio M2) it was 0.5; in data set [2] (mouse, po, 20 mg/kg, 20 mg/kg PO, 0.5 Hr, individual mouse M3, read-out: B/P Ratio M3), 0.9; in data set [2] (mouse, po, 20 mg/kg, 20 mg/kg PO, 0.5 Hr, read-out: B/P Ratio Mean) it was 0.8. Also, the Kp at 2 h amounted to 5.5 in data set [2] (mouse, po, 20 mg/kg, 20 mg/kg PO, 2 Hr, individual mouse M4, read-out: B/P Ratio M4); 5 in data set [2] (mouse, po, 20 mg/kg, 20 mg/kg PO, 2 Hr, individual mouse M5, read-out: B/P Ratio M5); 5.3 in data set [2] (mouse, po, 20 mg/kg, 20 mg/kg PO, 2 Hr, read-out: B/P Ratio Mean). Also, the IC50 in data set [3] (setting [7]) amounted to 0.23 µM.

Turning to `Oc1ccccc1-c1cncn1Cc1cc2cc(Br)ccc2[nH]1` [Compound 10c, 2-(1-((5-bromo-1H-indol-2-yl)methyl)-1H-imidazol-5-yl)phenol], the IC50 in data set [4] amounted to 158 µM.

Regarding `Brc1ccc2[nH]c(-c3cnc[nH]3)cc2c1` [Compound 6, 5-bromo-2-(1H-imidazol-5-yl)-1H-indole], in data set [3] (setting [7]), the IC50 is 30 µM.

Consider `Brc1ccc2[nH]c(Cn3cncc3-c3ccc[nH]3)cc2c1` [Compound G28, 2-((5-(1H-pyrrol-2-yl)-1H-imidazol-1-yl)methyl)-5-bromo-1H-indole], for which the fraction unbound at 6 h in data set [5] (pooled brain homogenate in PBS (1:3 m:v), pooled mouse brain homogenized with PBS (1:3), read-out: % FU Brain) came to 0.0161; in data set [5] (pooled mouse plasma, read-out: fu,plasma / % FU Plasma), 0.0117. For the same molecule, the results for the EC50 in data set [1] and in data set [1] (setting [6]) were 0.47 µM and 0.467 µM, respectively. Moreover, the Tissue Concentration Plasma Mean is 1880 ng/mL in data set [2] (20 mg/kg IP, 0.25 hr); 1840 ng/mL in data set [2] (20 mg/kg IP, 0.5 hr); 1410 ng/mL in data set [2] (20 mg/kg IP, 1 hr); 562 ng/mL in data set [2] (20 mg/kg IP, 2 hr); 133 ng/mL in data set [2] (20 mg/kg IP, 4 hr); “BQL” in data set [2] (20 mg/kg IP, 6 hr). The “Tissue Concentration Plasma Mean” value in data set [2] (20 mg/kg IP, 8 hr) is “BQL”. Besides, the AUC(0-inf) in data set [2] (mouse, 20 mg/kg IP, Brain) came out at 14200 ng·h/mL; in data set [2] (mouse, 20 mg/kg IP, Plasma) it was 2920 ng·h/mL. Further, the AUC(0-t) in data set [2] (mouse, 20 mg/kg IP, Brain) turned out to be 9870 ng·h/mL; in data set [2] (mouse, 20 mg/kg IP, Plasma), 2910 ng·h/mL. Moreover, the highest concentration (Cmax) was 4020 ng/mL in data set [2] (mouse, 20 mg/kg IP, Brain) and 1880 ng/mL in data set [2] (mouse, 20 mg/kg IP, Plasma). Further, the Tmax in data set [2] (mouse, 20 mg/kg IP, Brain) turned out to be 30 min; in data set [2] (mouse, 20 mg/kg IP, Plasma), 15 min. Also, the half-life was 142 min in data set [2] (mouse, 20 mg/kg IP, Brain) and 49.8 min in data set [2] (mouse, 20 mg/kg IP, Plasma). For the same molecule, in data set [2] (mouse, brain, ip, 20 mg/kg, 20 mg/kg IP, 0.25 hr, read-out: Tissue Concentration Brain Mean), the concentration at 0.25 h worked out at 1660 ng/g. Also, the concentration at 0.5 h in data set [2] (mouse, brain, ip, 20 mg/kg, 20 mg/kg IP, 0.5 hr, read-out: Tissue Concentration Brain Mean) is 4020 ng/g. Besides, the concentration at 1 h in data set [2] (mouse, brain, ip, 20 mg/kg, 20 mg/kg IP, 1 hr, read-out: Tissue Concentration Brain Mean) was found to be 3520 ng/g. In addition, in data set [2] (mouse, brain, ip, 20 mg/kg, 20 mg/kg IP, 2 hr, read-out: Tissue Concentration Brain Mean), the concentration at 2 h was found to be 2760 ng/g. For the same molecule, the concentration at 4 h in data set [2] (mouse, brain, ip, 20 mg/kg, 20 mg/kg IP, 4 hr, read-out: Tissue Concentration Brain Mean) was 1370 ng/g. For the same molecule, the concentration at 6 h in data set [2] (mouse, brain, ip, 20 mg/kg, 20 mg/kg IP, 6 hr, read-out: Tissue Concentration Brain Mean) was 552 ng/g. Further, in data set [2] (mouse, brain, ip, 20 mg/kg, 20 mg/kg IP, 8 hr, read-out: Tissue Concentration Brain Mean), the concentration at 8 h was found to be 510 ng/g. Also, the 50% inhibitory concentration (IC50) in data set [3] (recombinant human IDO1) is 0.31 µM; in data set [3] (setting [7]), 0.309 µM.

With `Brc1ccc2[nH]c(-c3cncn3Cc3ccccc3)cc2c1` [Compound 9a, 2-(1-benzyl-1H-imidazol-5-yl)-5-bromo-1H-indole], the “increase in potency versus compound 6” value in data set [3] (IDO1 IC50, versus compound 6) is recorded as “two-fold”.

For the molecule `COc1ccc(Cn2cncc2-c2cc3cc(Br)ccc3[nH]2)cc1` [Compound 9d, 5-bromo-2-(1-(4-methoxybenzyl)-1H-imidazol-5-yl)-1H-indole], the EC50 in data set [1] (setting [6]) was 4.3 µM. For the same molecule, the IC50 in data set [3] (setting [7]) amounted to 21 µM.
